Experimental data published in patent US20250136578A1 (Kolm Therapeutics Inc., priority 2023, published 2025).

Assays:
AR / CBP ternary complex = AR / CBP ternary complex (Homo sapiens, UniProt P10275+Q92793); test: Ternary complex formation assay (sandwich ELISA, AR capture, CBP antibody detection) in VCaP cell lysates; assay type: cell-based; conditions: treated 1.5 hours, rabbit CBP or p300 antibody detection, average, read-out: Average Ternary Complex
How it was run: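 VCaP cells in 5% charcoal-stripped FBS were cultured ≥3 days and then given bifunctional compound for 1.5 h. Lysates went onto AR-antibody-coated plates. Bound CBP (or p300) was detected with a rabbit antibody plus HRP anti-rabbit, using QuantaRed chemifluorescence (ex 570/em 585) read immediately, at 5 min and at 15 min.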

VCaP cells = test: VCaP growth inhibition assay (CTG); assay type: cell-based; conditions: Homo sapiens, 216 h, 30 pM R1881, 9 days
How it was run: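 VCaP cells in phenol red-free DMEM with 5% charcoal-stripped serum were stimulated with 30 pM R1881 (final) and treated with compound from 100 nM to 10 fM final (1:5 dilutions) for 9 days at 37 °C. Viability was read by CellTiter-Glo luminescence, and IC50 came from 4-parameter logistic fits.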

Chain of AR / CBP ternary complex (P10275 whole entry): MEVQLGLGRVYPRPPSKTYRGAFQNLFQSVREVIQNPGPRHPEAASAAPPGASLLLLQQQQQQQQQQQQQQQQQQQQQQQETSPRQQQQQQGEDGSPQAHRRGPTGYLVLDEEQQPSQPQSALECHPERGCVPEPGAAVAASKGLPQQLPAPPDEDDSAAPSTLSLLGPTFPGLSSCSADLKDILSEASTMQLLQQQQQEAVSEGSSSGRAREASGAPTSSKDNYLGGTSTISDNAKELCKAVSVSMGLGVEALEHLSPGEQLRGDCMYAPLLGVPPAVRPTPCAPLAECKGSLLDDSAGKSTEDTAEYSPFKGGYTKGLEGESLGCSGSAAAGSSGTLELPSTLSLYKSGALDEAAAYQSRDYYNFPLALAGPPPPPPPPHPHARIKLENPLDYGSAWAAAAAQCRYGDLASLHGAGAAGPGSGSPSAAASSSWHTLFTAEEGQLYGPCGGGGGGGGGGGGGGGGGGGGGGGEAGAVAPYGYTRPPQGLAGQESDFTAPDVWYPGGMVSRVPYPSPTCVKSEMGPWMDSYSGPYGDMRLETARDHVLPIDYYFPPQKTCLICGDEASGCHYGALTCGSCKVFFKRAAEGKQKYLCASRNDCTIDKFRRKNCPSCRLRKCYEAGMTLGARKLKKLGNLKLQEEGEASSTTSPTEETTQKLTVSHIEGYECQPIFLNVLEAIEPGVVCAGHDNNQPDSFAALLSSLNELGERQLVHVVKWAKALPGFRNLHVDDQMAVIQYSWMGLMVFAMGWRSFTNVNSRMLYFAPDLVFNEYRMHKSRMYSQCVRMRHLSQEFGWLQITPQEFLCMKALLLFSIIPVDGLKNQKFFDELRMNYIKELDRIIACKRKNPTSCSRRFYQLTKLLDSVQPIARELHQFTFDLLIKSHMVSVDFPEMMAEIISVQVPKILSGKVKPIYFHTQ
Chain of AR / CBP ternary complex (Q92793 2-2442): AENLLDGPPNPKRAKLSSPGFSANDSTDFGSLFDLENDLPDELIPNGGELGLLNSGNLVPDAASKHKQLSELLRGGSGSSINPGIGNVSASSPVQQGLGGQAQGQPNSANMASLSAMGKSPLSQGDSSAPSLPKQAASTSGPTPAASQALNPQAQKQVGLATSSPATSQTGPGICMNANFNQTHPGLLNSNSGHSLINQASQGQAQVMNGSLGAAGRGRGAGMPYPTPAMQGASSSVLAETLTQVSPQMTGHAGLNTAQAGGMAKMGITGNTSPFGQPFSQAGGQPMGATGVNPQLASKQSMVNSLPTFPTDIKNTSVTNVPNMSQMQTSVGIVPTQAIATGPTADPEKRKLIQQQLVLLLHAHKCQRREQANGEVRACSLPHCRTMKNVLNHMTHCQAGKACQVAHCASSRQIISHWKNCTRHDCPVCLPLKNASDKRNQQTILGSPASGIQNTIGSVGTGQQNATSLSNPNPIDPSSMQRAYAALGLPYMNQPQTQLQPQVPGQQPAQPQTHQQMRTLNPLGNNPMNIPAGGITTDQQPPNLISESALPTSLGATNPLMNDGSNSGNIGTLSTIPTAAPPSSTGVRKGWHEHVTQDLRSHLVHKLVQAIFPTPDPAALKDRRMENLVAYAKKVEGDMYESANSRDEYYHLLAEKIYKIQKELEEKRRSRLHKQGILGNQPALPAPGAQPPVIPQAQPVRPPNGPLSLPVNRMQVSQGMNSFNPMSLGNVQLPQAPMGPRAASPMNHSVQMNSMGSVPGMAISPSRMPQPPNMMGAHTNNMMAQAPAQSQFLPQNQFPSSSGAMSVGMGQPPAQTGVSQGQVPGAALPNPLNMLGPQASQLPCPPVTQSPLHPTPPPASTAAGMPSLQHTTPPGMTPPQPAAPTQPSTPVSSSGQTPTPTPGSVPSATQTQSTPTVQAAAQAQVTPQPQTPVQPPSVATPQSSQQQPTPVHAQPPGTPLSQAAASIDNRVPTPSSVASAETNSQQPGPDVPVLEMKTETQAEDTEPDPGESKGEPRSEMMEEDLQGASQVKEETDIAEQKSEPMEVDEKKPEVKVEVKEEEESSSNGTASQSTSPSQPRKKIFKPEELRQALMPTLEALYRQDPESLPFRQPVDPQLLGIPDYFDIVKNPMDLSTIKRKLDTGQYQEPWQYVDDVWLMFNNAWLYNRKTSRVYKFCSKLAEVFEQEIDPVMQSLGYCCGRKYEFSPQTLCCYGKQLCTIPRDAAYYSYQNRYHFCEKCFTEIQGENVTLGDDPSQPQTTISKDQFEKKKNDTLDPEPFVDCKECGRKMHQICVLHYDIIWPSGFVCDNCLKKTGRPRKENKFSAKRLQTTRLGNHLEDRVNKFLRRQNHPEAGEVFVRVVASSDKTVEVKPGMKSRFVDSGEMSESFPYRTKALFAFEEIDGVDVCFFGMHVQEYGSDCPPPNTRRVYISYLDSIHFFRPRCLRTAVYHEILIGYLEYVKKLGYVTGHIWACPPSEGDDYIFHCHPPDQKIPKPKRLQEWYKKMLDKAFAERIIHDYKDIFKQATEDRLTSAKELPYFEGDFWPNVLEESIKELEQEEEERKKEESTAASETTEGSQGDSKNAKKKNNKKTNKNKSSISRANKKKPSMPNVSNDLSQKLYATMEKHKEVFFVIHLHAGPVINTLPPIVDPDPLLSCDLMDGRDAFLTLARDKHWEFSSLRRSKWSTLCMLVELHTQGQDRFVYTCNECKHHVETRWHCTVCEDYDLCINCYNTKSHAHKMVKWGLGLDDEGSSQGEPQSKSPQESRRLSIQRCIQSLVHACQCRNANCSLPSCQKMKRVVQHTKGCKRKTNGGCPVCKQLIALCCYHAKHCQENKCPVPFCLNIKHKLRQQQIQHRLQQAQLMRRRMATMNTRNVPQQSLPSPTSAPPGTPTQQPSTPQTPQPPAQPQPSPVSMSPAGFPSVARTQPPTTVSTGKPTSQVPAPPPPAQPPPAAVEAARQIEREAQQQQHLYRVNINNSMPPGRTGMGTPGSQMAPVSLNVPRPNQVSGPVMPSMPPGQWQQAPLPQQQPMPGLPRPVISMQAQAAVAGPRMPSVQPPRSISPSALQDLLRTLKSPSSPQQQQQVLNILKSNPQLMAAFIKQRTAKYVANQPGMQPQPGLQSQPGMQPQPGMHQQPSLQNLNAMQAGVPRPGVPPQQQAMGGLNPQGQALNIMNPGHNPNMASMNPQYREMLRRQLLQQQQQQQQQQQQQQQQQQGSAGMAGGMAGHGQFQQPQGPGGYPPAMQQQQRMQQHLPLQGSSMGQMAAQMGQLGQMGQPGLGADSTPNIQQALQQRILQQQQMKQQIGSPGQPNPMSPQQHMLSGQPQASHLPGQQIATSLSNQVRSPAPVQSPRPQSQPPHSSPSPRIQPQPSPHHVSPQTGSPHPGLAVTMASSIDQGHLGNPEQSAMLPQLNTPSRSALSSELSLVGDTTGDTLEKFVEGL

| Structure (SMILES) | EC50 (AR / CBP ternary complex) | IC50 (VCaP cells) |
| --- | --- | --- |
| CC(=O)N1CCc2c(c(-c3cccc4cc(-c5cnn(CCOC6CCN(c7ccc(C(=O)N[C@H]8CC[C@H](Oc9ccc(C#N)c(Cl)c9)CC8)nn7)CC6)c5)ncc34)nn2C)C1 [Compound 65, 6-[4-[2-[4-[8-(5-acetyl-1-methyl-6,7-dihydro-4H-pyrazolo[4,3-c]pyridin-3-yl)-3-isoquinolyl]pyrazol-1-yl]ethoxy]-1-piperidyl]-N-[4-(3-chloro-4-cyano-phenoxy)cyclohexyl]pyridazine-3-carboxamide] | < 1 nM | ≤ 0.1 nM |
| CC(=O)N1CCc2c(c(N3CCCc4cc(-c5cnn(C)c5)ncc43)nn2C2CCN(CC3CCN(c4ccc(C(=O)N[C@H]5CC[C@H](Oc6ccc(C#N)c(Cl)c6)CC5)nn4)CC3)CC2)C1 [Compound 66, rac-6-(4-((4-(5-acetyl-3-(6-(1-methyl-1H-pyrazol-4-yl)-3,4-dihydro-1,7-naphthyridin-1(2H)-yl)-4,5,6,7-tetrahydro-1H-pyrazolo[4,3-c]pyridin-1-yl)piperidin-1-yl)methyl)piperidin-1-yl)-N-((1r,4r)-4-(3-chloro-4-cyanophenoxy)cyclohexyl)pyridazine-3-carboxamide] | < 1 nM | 0.1 to 1 nM |
| CC(=O)N1CCc2c(c(N3CCCc4cc(-c5cnn(C)c5)ncc43)nn2C2CCN(C(=O)C3CCN(c4ccc(C(=O)N[C@H]5CC[C@H](Oc6ccc(C#N)c(Cl)c6)CC5)nn4)CC3)CC2)C1 [Compound 67, 6-[4-[4-[5-acetyl-3-[6-(1-methylpyrazol-4-yl)-3,4-dihydro-2H-1,7-naphthyridin-1-yl]-6,7-dihydro-4H-pyrazolo[4,3-c]pyridin-1-yl]piperidine-1-carbonyl]-1-piperidyl]-N-[4-(3-chloro-4-cyano-phenoxy)cyclohexyl]pyridazine-3-carboxamide] | < 1 nM | 0.1 to 1 nM |
| CC(=O)N1CCc2c(c(N3CCCc4cc(C#N)ncc43)nn2C2CCN(CC3CCN(c4ccc(C(=O)N[C@H]5CC[C@H](Oc6ccc(C#N)c(Cl)c6)CC5)nn4)CC3)CC2)C1 [Compound 68, 6-[4-[[4-[5-acetyl-3-(6-cyano-3,4-dihydro-2H-1,7-naphthyridin-1-yl)-6,7-dihydro-4H-pyrazolo[4,3-c]pyridin-1-yl]-1-piperidyl]methyl]-1-piperidyl]-N-[4-(3-chloro-4-cyano-phenoxy)cyclohexyl]pyridazine-3-carboxamide] | < 1 nM | ≤ 0.1 nM |
| CC(=O)N1CCc2c(c(N3CCCc4cc(C#N)ncc43)nn2C2CCN(C(=O)C3CCN(c4ccc(C(=O)N[C@H]5CC[C@H](Oc6ccc(C#N)c(Cl)c6)CC5)nn4)CC3)CC2)C1 [Compound 69, 6-[4-[4-[5-acetyl-3-(6-cyano-3,4-dihydro-2H-1,7-naphthyridin-1-yl)-6,7-dihydro-4H-pyrazolo[4,3-c]pyridin-1-yl]piperidine-1-carbonyl]-1-piperidyl]-N-[4-(3-chloro-4-cyano-phenoxy)cyclohexyl]pyridazine-3-carboxamide] | < 1 nM | ≤ 0.1 nM |
| CC(=O)N1CCc2c(c(-c3cccc4nc(-c5cnn(CCC6CCN(c7ccc(C(=O)N[C@H]8CC[C@H](Oc9ccc(C#N)c(Cl)c9)CC8)nn7)CC6)c5)ncc34)nn2C2CCOCC2)C1 [Compound 70] | < 1 nM | 0.1 to 1 nM |
| CC(=O)N1CCc2c(c(N3CCCc4nc(-c5ccc(CCC6CCN(c7ccc(C(=O)N[C@H]8CC[C@H](Oc9ccc(C#N)c(Cl)c9)CC8)nn7)CC6)nc5)ncc43)nn2C2CCOCC2)C1 [Compound 72, 6-[4-[2-[5-[5-(5-acetyl-1-tetrahydropyran-4-yl-6,7-dihydro-4H-pyrazolo[4,3-c]pyridin-3-yl)-7,8-dihydro-6H-pyrido[3,2-d]pyrimidin-2-yl]-2-pyridyl]ethyl]-1-piperidyl]-N-[4-(3-chloro-4-cyano-phenoxy)cyclohexyl]pyridazine-3-carboxamide] | < 1 nM | 0.1 to 1 nM |
| CC(=O)N1CCc2c(c(-c3cccc4nc(-c5ccc(CCC6CCN(c7ccc(C(=O)N[C@H]8CC[C@H](Oc9ccc(C#N)c(Cl)c9)CC8)nn7)CC6)nc5)ncc34)nn2C2CCOCC2)C1 [Compound 73, 6-[4-[2-[5-[5-(5-acetyl-1-tetrahydropyran-4-yl-6,7-dihydro-4H-pyrazolo[4,3-c]pyridin-3-yl)quinazolin-2-yl]-2-pyridyl]ethyl]-1-piperidyl]-N-[4-(3-chloro-4-cyano-phenoxy)cyclohexyl]pyridazine-3-carboxamide] | < 1 nM | ≤ 0.1 nM |
| CC(=O)N1CCc2c(c(N3CCCc4cc(C#N)ccc43)nn2[C@H]2C[C@H](CC3CCN(c4ccc(C(=O)N[C@H]5CC[C@H](Oc6ccc(C#N)c(Cl)c6)CC5)nn4)CC3)C2)C1 [Compound 77, 6-[4-[[3-[5-acetyl-3-(6-cyano-3,4-dihydro-2H-quinolin-1-yl)-6,7-dihydro-4H-pyrazolo[4,3-c]pyridin-1-yl]cyclobutyl]methyl]-1-piperidyl]-N-[4-(3-chloro-4-cyano-phenoxy)cyclohexyl]pyridazine-3-carboxamide] | 1 to 10 nM | 0.1 to 1 nM |
| CC(=O)N1CCc2c(c(-c3cccc4cc(-c5cnn(CCC6CCN(c7ccc(C(=O)N[C@H]8CC[C@H](Oc9ccc(C#N)c(Cl)c9)CC8)nn7)CC6)c5)ncc34)nn2C2CC2)C1 [Compound 82] | < 1 nM | 0.1 to 1 nM |
| CC(=O)N1CCc2c(c(-c3cccc4cc(-c5cnn(CCC6CCN(c7ccc(C(=O)N[C@H]8CC[C@H](Oc9ccc(C#N)c(Cl)c9)CC8)nn7)CC6)c5)ncc34)nn2C2CCC2)C1 [Compound 83, 6-[4-[2-[4-[8-(5-acetyl-1-cyclobutyl-6,7-dihydro-4H-pyrazolo[4,3-c]pyridin-3-yl)-3-isoquinolyl]pyrazol-1-yl]ethyl]-1-piperidyl]-N-[4-(3-chloro-4-cyanophenoxy)cyclohexyl]pyridazine-3-carboxamide] | < 1 nM | 0.1 to 1 nM |
| CC(=O)N1CCc2c(c(-c3cccc4cc(-c5cnn(CCC6CCN(c7ccc(C(=O)N[C@H]8CC[C@H](Oc9ccc(C#N)c(Cl)c9)CC8)nn7)CC6)c5)ncc34)nn2C2COC2)C1 [Compound 84, 6-[4-[2-[4-[8-[5-acetyl-1-(oxetan-3-yl)-6,7-dihydro-4H-pyrazolo[4,3-c]pyridin-3-yl]-3-isoquinolyl]pyrazol-1-yl]ethyl]-1-piperidyl]-N-[4-(3-chloro-4-cyano-phenoxy)cyclohexyl]pyridazine-3-carboxamide] | < 1 nM | 0.1 to 1 nM |
| CC(=O)N1CCc2c(c(-c3cccc4cc(-c5cnn(CCC6CCN(c7ccc(C(=O)N[C@H]8CC[C@H](Oc9ccc(C#N)c(Cl)c9)CC8)nn7)CC6)c5)ncc34)nn2[C@H]2CCOC2)C1 [Compound 85, 6-[4-[2-[4-[8-[5-acetyl-1-[(3S)-tetrahydrofuran-3-yl]-6,7-dihydro-4H-pyrazolo[4,3-c]pyridin-3-yl]-3-isoquinolyl]pyrazol-1-yl]ethyl]-1-piperidyl]-N-[4-(3-chloro-4-cyano-phenoxy)cyclohexyl] pyridazine-3-carboxamide] | < 1 nM | ≤ 0.1 nM |
| C[C@@H]1CC(=O)Nc2cc(C3CCN(CC4CCN(c5ccc(C(=O)N[C@H]6CC[C@H](Oc7ccc(C#N)c(Cl)c7)CC6)nn5)CC4)CC3)cc(-c3ccc4c(c3)c(-c3cnn(C)c3)nn4C)c2N1 [Compound 87, N-[4-(3-chloro-4-cyano-phenoxy)cyclohexyl]-6-[4-[[4-[(4R)-4-methyl-6-[1-methyl-3-(1-methylpyrazol-4-yl)indazol-5-yl]-2-oxo-1,3,4,5-tetrahydro-1,5-benzodiazepin-8-yl]-1-piperidyl]methyl]-1-piperidyl]pyridazine-3-carboxamide] | < 1 nM | ≤ 0.1 nM |
